In ChEMBL document CHEMBL1201862, “PubChem BioAssay data set” (2004):
Activity calls are given as the source filed them.

Tests used:
[1] = target: Transitional endoplasmic reticulum ATPase (Homo sapiens, UniProt P55072); test: p97 ATPase inhibitors, dose response, biochemical (AID 1534)
[2] = target: T1, Bcl-2-related protein A1 (Mus musculus, UniProt Q07440); type: functional;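 further: confirmatory dose–response counterscreen on Bfl-1, used to check hits from a UBC13 polyubiquitin inhibitor campaign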
T1 sequence (Q07440 whole entry): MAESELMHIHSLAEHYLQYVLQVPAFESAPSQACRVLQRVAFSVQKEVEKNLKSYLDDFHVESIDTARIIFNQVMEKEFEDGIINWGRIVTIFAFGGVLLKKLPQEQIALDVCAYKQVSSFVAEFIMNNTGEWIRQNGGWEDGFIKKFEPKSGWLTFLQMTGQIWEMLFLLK

[3] = tested on: INS1; test: INS-1E survival protection against cytokine death – cell-based, luminescence, retest, dose response (AID 449756); type: functional; details: Rattus norvegicus;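 further: cell death triggered by IL-1 beta plus TNF-alpha plus IFN-gamma mixture; protective hits raise ATP signal compared with cytokine alone wells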
[4] = target: T2, Ubiquitin-conjugating enzyme E2 N (Homo sapiens, UniProt P61088); type: functional
T2 sequence (P61088 whole entry): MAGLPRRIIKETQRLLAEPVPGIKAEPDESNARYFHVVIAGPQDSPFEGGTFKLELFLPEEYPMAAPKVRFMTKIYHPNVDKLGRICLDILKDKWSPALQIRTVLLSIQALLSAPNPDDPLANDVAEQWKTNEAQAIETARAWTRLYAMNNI

[5] = fluconazole-exposed Candida albicans growth modulators – fluorescence, retest, confirmation (AID 2467); type: functional, cell-based
[6] = target: T3, CAAX prenyl protease 2 (Saccharomyces cerevisiae S288c, UniProt Q03530); type: biochemical
T3 sequence (Q03530 whole entry): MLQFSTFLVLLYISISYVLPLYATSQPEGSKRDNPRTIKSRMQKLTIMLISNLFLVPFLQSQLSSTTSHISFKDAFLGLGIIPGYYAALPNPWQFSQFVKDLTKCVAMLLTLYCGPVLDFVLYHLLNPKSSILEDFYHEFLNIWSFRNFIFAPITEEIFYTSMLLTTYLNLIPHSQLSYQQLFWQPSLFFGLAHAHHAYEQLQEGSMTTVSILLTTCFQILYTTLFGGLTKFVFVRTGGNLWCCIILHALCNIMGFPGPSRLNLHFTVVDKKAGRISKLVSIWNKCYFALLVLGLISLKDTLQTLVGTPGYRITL

[7] = target: T2, Ubiquitin-conjugating enzyme E2 N; type: functional; remark: listed apart in the source
[8] = target: T4, Protein RecA (Mycobacterium tuberculosis, UniProt P9WHJ3); test: Fluorescence Cell-Free Homogeneous Dose Retest to Identify Inhibitors of RecA-Intein Splicing Activity. [Related pubchem assays (depositor defined):AID2097, AID2223, AID489010, AID492950]; type: functional
T4 sequence (P9WHJ3 whole entry): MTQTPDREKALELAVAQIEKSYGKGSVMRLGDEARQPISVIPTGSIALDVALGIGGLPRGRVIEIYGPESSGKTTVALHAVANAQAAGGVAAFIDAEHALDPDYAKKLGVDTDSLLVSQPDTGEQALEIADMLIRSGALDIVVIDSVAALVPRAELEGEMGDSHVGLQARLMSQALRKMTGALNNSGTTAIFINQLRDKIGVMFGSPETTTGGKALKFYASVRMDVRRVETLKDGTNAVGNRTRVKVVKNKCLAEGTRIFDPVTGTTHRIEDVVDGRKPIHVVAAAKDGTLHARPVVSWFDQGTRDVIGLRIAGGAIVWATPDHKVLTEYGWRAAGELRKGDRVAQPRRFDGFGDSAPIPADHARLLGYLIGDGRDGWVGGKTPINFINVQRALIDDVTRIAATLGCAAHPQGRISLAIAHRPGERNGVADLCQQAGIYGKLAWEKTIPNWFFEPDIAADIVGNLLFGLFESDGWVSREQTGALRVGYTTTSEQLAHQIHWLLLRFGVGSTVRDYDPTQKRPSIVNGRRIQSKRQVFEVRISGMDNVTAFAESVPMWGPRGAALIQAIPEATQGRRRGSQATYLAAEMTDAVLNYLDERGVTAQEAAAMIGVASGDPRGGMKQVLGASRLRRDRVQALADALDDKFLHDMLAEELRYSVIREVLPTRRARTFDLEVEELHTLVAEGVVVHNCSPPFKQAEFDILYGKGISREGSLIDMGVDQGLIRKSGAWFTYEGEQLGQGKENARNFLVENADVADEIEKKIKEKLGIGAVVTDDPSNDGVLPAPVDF

[9] = NIH-3T3 fibroblast cytotoxicity, dose response, cytotoxicity control, cell-based, fluorescence, Alamar Blue, secondary assay (AID 2327); type: functional;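 further: NIH-3T3 mouse fibroblasts cultured with fluconazole at 8 µg/mL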
[10] = target: T5, CAAX prenyl protease 2 (Homo sapiens, UniProt Q9Y256); test: inhibition of Ras-converting CAAX protease Rce1 – biochemical, yeast membranes, quenched-peptide fluorescence, cherry-pick, dose response (AID 588849)
T5 sequence (Q9Y256 whole entry): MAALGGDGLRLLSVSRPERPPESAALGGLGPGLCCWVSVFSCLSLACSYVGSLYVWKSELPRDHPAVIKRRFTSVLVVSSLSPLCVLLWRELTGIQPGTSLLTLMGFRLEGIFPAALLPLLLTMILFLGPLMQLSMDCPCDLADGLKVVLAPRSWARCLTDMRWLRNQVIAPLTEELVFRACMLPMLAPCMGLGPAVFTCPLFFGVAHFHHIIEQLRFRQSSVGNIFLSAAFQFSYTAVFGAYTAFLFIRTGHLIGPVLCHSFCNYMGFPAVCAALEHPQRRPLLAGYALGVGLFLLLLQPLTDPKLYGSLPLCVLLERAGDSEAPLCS

[11] = target: Trypsin (Sus scrofa, UniProt P00761); test: trypsin protease activity blockade – biochemical, quenched peptide fluorescence, cherry-pick, selectivity assay for Rce1 protease inhibitor project, dose response (AID 488789)
[12] = target: Transitional endoplasmic reticulum ATPase (Homo sapiens, UniProt P55072, C522A); test: C522A mutant p97 ATPase inhibitors, dose response, counter-screen for p97 inhibitor project, biochemical, luminescence (AID 1544)
[13] = target: T6, Replicative DNA helicase DnaB (Mycobacterium tuberculosis, UniProt P9WMR3); test: DnaB intein splicing inhibitors, dose response, biochemical, cell-free fluorescence (AID 449749); type: functional
T6 sequence (P9WMR3 whole entry): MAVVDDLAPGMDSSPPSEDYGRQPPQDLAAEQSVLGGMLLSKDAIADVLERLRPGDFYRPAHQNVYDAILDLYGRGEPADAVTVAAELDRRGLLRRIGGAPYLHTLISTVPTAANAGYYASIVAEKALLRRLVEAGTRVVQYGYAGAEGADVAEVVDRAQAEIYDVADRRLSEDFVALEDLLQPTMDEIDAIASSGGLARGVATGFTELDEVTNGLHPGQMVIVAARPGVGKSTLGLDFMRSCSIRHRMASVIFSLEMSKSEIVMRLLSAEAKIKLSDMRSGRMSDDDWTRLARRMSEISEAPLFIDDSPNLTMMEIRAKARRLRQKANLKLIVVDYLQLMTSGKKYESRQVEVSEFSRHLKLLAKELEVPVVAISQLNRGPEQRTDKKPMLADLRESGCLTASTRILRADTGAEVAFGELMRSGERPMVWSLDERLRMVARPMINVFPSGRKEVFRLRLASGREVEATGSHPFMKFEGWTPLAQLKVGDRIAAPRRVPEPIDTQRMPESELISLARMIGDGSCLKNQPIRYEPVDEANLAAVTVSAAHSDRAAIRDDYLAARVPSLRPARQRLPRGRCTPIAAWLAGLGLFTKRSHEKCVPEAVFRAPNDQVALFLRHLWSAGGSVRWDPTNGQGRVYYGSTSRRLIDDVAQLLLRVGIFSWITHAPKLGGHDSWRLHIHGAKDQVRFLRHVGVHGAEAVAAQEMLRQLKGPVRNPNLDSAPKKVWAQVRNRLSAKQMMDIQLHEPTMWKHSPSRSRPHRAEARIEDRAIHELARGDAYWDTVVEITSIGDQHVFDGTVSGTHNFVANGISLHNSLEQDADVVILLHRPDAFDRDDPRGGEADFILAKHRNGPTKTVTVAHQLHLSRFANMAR

[14] = target: Likely tRNA 2'-phosphotransferase (Candida albicans (strain SC5314 / ATCC MYA-2876) (Yeast), UniProt Q5A7N4); test: inhibition of Candida TPT1 enzyme activity – biochemical, fluorescence polarization, dose response (AID 2160)
[15] = target: Guanyl-specific ribonuclease T1 (Aspergillus oryzae (strain ATCC 42149 / RIB 40), UniProt P00651); test: inhibition of ribonuclease T1 activity – biochemical, fluorescence polarization, 1536-well, counter-screen for TPT1 inhibitor project, dose response (AID 2167)
[16] = target: T7, Heat shock factor protein 1 (Mus musculus, UniProt P38532); test: decrease of HSF1-responsive luciferase luminescence – cell-based, NIH3T3, dose retest, confirmation (AID 2382); type: functional;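 further: NIH3T3 fibroblasts with HSF1-driven luciferase reporter stressed by proteasome inhibitor MG132; luminescence from HSF1-driven luciferase expression after 8 hours of MG132 stress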
T7 sequence (P38532 whole entry): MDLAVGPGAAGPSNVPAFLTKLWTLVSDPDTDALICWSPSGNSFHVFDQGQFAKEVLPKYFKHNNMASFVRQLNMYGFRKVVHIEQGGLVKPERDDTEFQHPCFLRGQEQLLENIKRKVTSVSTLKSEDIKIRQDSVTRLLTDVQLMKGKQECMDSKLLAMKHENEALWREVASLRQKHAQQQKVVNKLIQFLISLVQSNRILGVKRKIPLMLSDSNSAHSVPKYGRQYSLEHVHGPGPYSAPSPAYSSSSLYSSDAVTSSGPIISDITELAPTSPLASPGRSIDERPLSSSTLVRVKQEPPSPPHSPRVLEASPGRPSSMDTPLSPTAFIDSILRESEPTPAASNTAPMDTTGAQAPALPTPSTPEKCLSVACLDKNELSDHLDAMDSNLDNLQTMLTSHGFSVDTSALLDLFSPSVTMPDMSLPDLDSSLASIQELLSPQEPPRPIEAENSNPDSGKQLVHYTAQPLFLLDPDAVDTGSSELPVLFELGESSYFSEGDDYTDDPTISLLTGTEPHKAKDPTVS

[17] = target: Bcl-2-like protein 10 (Homo sapiens, UniProt Q9HD36); test: Bcl-B/TR3 peptide binding disruption – biochemical, fluorescence polarization, FITC-TR3 peptide, selectivity assay for Bfl-1 inhibitor project, primary screen (AID 748);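 further: fluorescence polarization from a fluorescein-labelled TR3 peptide binding purified Bcl-B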
[18] = target: Lysosomal acid glucosylceramidase (Homo sapiens, UniProt P04062); test: Dose response cell-based high throughput screening assay to identify enhancers of beta-glucosidase activity. [Related pubchem assays: 784 ]; type: functional
[19] = target: Cyclin-dependent kinase 5/CDK5 activator 1 (Homo sapiens, UniProt Q00535); test: blockade of human CDK5 activity – biochemical, cherry-picked samples, set 2, dose response (AID 504545)
[20] = target: G-protein coupled receptor 35 (Homo sapiens, UniProt Q9HC97); test: inhibition of zaprinast-stimulated GPR35 beta-arrestin translocation – imaging, U2OS, beta-arrestin-GFP, zaprinast agonist, primary screen (AID 2058); type: functional;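 further: antagonist potency meaning inhibition of agonist-induced arrestin redistribution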
[21] = tested on: Streptococcus; test: GAS UMAA2166 growth inhibition – luminescence, BacTiterGlo, counter-screen for streptokinase expression inhibitor project, dose response (AID 1915); type: functional, organism-based;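 further: potency for reduction of bacterial viability or growth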
[22] = target: T8, Streptokinase A (Streptococcus pyogenes serotype M1, UniProt P10520); test: viability-normalized secreted streptokinase activity reduction – plasminogen activation absorbance, OD405, dose response (AID 1914); type: functional, Streptococcus pyogenes M1 GAS;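 further: secreted streptokinase activity via plasminogen activation per viability signal from cell pellet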
T8 sequence (P10520 whole entry): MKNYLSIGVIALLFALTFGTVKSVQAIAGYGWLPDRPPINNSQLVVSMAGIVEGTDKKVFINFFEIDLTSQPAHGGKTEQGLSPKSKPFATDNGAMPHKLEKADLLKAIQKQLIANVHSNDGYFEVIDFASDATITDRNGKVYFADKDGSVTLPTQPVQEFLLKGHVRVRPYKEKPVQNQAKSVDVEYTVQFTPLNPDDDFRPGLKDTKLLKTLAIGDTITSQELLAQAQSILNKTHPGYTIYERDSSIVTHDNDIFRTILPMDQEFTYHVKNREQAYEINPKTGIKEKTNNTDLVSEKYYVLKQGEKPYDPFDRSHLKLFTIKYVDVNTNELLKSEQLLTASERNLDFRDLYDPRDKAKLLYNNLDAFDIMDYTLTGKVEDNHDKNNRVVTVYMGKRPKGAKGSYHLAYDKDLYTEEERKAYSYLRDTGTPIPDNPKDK

[23] = viability of uninfected HEp-2 cells – cell-based, HTS, cytotoxicity control for RSV inhibitor project, dose response (AID 2410); type: functional; details: human respiratory syncytial virus
[24] = tested on: Streptococcus sp. 'group A'; test: Streptococcus pyogenes SK(-)GAS viability under kanamycin – luminescence, BacTiterGlo, confirmation, counter-screen for streptokinase expression inhibitor project, dose response (AID 1900); type: functional, organism-based
[25] = blockers of SFLLRN-triggered platelet ATP secretion – cell-based, human platelets, luminescence, dry powder, dose response (AID 493100); type: functional
[26] = target: Voltage-gated N-type calcium channel alpha-1B subunit/Amyloid beta A4 precursor protein-binding family A member 1 (Homo sapiens, UniProt Q00975+Q02410); test: disruptors of Mint-PDZ/N-type channel peptide interaction – biochemical, HTRF, set 2, SAR follow-up (AID 434980); type: functional
Chain of Voltage-gated N-type calcium channel alpha-1B subunit/Amyloid beta A4 precursor protein-binding family A member 1 (Q00975 whole entry): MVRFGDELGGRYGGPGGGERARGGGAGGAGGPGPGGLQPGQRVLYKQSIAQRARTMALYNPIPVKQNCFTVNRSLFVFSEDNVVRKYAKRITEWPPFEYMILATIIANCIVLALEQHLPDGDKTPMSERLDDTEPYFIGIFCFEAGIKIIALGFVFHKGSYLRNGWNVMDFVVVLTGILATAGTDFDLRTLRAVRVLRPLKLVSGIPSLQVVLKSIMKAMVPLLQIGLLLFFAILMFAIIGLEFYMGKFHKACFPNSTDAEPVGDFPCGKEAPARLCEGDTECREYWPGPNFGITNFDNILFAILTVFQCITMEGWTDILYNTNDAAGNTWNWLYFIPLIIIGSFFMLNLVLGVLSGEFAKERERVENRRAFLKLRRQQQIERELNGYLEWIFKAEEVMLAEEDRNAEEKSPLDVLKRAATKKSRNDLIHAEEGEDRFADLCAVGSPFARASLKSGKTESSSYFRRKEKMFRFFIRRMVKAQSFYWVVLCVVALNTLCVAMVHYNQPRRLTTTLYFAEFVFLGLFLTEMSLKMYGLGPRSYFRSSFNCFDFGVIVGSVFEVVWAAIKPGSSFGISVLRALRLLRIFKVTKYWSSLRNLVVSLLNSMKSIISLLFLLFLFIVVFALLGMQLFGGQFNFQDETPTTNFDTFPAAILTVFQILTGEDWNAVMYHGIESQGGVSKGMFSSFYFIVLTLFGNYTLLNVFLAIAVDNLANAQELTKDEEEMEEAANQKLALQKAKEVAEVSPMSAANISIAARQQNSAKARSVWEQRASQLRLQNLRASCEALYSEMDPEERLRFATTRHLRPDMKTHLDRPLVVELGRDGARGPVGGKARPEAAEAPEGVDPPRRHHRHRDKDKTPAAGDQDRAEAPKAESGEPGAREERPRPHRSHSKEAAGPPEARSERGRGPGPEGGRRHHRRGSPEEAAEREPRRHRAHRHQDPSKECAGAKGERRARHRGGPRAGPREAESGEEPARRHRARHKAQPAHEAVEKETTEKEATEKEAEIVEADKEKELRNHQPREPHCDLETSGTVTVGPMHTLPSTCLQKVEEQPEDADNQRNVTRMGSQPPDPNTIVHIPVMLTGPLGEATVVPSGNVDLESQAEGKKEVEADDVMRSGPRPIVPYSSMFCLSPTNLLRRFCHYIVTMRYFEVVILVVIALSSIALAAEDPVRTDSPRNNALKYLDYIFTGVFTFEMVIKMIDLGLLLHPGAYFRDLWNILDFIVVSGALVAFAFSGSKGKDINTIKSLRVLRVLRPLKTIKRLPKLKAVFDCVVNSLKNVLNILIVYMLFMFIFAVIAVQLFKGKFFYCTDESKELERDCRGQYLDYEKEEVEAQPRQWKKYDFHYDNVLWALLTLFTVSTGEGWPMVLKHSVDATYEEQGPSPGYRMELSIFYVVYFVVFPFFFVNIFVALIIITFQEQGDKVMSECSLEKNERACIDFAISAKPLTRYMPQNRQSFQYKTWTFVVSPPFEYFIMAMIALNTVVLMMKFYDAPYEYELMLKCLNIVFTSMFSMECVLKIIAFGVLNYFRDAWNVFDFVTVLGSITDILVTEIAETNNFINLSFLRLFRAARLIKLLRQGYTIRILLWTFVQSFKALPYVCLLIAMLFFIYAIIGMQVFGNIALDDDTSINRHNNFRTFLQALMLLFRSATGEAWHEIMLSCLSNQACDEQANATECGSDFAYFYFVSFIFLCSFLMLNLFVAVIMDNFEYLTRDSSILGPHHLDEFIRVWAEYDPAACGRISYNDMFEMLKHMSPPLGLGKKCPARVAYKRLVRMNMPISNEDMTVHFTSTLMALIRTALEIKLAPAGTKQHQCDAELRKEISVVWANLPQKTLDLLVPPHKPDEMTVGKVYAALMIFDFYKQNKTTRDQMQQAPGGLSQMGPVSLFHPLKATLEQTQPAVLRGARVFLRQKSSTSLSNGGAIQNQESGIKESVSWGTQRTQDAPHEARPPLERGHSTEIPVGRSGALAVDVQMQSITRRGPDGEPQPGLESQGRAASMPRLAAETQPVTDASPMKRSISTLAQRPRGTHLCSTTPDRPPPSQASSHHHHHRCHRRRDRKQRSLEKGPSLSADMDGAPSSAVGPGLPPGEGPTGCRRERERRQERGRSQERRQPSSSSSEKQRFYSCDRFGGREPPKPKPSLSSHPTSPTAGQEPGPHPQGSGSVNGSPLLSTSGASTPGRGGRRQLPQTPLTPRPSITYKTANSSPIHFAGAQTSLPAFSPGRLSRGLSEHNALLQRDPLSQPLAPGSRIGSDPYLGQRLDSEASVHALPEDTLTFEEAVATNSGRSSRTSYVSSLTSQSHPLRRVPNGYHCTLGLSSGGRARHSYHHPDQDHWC
Chain of Voltage-gated N-type calcium channel alpha-1B subunit/Amyloid beta A4 precursor protein-binding family A member 1 (Q02410 whole entry): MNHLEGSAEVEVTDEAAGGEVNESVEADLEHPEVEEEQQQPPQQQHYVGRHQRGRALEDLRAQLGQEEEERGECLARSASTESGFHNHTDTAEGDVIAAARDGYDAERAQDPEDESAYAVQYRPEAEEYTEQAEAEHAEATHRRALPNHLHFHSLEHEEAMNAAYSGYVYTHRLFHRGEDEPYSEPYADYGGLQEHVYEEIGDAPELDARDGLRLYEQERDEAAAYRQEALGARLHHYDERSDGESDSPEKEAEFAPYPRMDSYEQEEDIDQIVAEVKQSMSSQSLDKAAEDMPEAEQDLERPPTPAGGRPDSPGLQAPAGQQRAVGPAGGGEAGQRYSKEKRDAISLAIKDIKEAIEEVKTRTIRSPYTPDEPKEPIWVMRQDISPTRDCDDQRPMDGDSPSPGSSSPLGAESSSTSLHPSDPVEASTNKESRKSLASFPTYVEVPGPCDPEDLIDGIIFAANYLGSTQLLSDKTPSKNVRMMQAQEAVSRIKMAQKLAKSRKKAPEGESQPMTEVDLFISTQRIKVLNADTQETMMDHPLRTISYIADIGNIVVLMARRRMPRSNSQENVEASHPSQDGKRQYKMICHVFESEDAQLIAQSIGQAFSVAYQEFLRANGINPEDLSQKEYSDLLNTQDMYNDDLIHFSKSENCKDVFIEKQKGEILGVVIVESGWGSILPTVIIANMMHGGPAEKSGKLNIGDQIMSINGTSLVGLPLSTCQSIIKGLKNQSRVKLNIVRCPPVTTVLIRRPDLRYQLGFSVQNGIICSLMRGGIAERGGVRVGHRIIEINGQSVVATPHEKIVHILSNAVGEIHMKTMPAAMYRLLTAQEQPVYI

Chain of Transitional endoplasmic reticulum ATPase (Homo sapiens, UniProt P55072, C522A) (P55072 2-806 C522A limits assumed): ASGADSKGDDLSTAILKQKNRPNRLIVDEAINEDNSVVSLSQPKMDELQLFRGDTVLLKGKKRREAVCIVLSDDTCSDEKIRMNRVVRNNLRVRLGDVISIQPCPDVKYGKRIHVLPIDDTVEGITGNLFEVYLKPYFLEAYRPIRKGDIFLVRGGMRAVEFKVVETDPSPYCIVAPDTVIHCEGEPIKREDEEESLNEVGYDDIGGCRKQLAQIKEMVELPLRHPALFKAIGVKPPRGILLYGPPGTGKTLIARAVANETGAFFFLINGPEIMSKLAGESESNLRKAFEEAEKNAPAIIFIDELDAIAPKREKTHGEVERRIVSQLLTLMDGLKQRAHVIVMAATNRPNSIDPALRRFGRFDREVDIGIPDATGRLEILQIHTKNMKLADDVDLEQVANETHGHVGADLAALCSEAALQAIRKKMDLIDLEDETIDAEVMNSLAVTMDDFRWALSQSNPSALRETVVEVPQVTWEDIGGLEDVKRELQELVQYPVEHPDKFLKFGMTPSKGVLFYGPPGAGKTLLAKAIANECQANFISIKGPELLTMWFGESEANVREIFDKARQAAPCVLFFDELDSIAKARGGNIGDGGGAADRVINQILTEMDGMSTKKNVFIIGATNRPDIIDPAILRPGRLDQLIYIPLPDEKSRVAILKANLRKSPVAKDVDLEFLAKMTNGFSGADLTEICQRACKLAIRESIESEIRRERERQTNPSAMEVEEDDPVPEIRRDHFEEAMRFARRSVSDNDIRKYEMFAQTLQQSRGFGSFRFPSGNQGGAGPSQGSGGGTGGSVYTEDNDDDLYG
Chain of Cyclin-dependent kinase 5/CDK5 activator 1 (Q00535 whole entry): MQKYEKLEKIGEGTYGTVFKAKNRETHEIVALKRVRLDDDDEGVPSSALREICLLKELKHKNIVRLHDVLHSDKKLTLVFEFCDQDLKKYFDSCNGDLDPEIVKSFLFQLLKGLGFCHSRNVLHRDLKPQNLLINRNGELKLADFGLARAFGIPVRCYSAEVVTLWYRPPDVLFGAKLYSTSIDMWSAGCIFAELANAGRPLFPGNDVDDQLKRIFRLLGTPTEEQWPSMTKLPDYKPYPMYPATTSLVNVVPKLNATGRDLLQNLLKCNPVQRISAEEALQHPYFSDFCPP
Chain of Cyclin-dependent kinase 5/CDK5 activator 1 (Q15078 whole entry, further chain): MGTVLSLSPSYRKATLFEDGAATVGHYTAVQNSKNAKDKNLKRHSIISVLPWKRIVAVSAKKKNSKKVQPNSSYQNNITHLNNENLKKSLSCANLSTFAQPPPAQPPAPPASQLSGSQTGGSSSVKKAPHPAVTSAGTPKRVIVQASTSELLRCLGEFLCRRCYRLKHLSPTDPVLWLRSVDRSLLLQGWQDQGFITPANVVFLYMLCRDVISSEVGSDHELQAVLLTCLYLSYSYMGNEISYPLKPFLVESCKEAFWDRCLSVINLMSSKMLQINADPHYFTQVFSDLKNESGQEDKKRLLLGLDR
Chain of Likely tRNA 2'-phosphotransferase (Q5A7N4 whole entry): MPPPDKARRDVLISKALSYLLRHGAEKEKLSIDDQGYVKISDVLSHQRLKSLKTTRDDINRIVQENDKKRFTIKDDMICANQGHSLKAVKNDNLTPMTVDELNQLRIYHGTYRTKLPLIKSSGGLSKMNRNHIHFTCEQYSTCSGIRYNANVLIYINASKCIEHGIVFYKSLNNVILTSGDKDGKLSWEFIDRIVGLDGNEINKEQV
Chain of Guanyl-specific ribonuclease T1 (P00651 whole entry): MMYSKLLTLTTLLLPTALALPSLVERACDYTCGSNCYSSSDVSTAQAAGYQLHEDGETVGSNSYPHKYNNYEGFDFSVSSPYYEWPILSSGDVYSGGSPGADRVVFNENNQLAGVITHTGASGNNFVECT

c1ccc(CNc2nc(NCc3ccccc3)c3ccccc3n2)cc1
IC50 [1]: > 50 µM (not active) | IC50 [2]: 12.4 µM (active) | AC50 [3]: 7.6 µM (active) | IC50 [4]: 11 µM (active) | EC50 [5]: > 38 µM (not active) | AC50 [6]: 39.5 µM (active) | IC50 [7]: 19.6 µM (active) | EC50 [8]: 7.83 µM (active) | EC50 [9]: > 150 µM (inconclusive) | AC50 [10]: 9.69 µM (active) | AC50 [11]: 13.6 µM (active) | IC50 [12]: > 50 µM (not active) | AC50 [13]: 6.13 µM (active)

Cc1ccc(OCCn2cccc2/C=C2/C(=O)NC(=O)N(Cc3ccco3)C2=O)cc1
IC50 [14]: > 55.7 µM (not active) | IC50 [15]: > 55.7 µM (not active)

COc1ccc(NC(=O)c2cc(CN3C(=O)c4ccccc4C3=O)ccc2OC)cn1
EC50 [16]: > 195 µM (not active) | IC50 [17]: > 25 µM (inactive)

COc1ccc(OC)c(Nc2nc(-c3sc(N)nc3C)cs2)c1
EC50 [18]: > 50 µM (not active)

C=CCNC(=O)c1[nH]nc2c1CC(C(C)(C)CC)CC2 (stereo unspecified)
AC50 [19]: 3.18 µM (active)

CCOc1ccc(/C=N/NC(=O)Cc2csc(Nc3cccc(C(F)(F)F)c3)n2)cc1
IC50 [20]: 2.1 µM (active) | EC50 [21]: 20.2 µM (active) | EC50 [22]: 20.1 µM (active) | CC50 [23]: 12.2 µM (active) | EC50 [24]: 8.02 µM (active)

O=C(N/N=C/c1ccc(NC(=O)C(F)(F)F)cc1)C1CCCC1
AC50 [25]: 22.3 µM (active)

O=C(c1cc(-c2ccco2)nc2ccccc12)N1CCc2cccnc21
IC50 [26]: > 56.8 µM (inactive)
